From US6924309B2 (Children, Youth and Women's Health Service Incorporated, priority 1999, dated 2005) come the findings set out here.

Structures are written as SMILES.

Data set [1] can be described thus: Petri-dish thin film autoxidation of arachidonic acid with thia fatty acids and sulfides (HPLC). The procedure:
A stock solution in dichioromethane (2 ml) containing arachidonic acid 1 (18 mg) and 3-[(3Z,6Z)-nona-3,6dienylthio]propionic acid 106 (18 mg) was prepared with lauric acid (18 mg) as an internal standard. Samples of the stock solution (100 μl) were added to glass Petri-dishes followed by ethanol (400 μl). After evaporation of the solvent, a well-distributed thin film was formed on each Petri-dish. The Petri-dishes were placed in a desiccator, which was then evacuated, filled with oxygen and stored in the darkness. Dishes were removed from the desiccator after 1, 2, 3, 5 and 7 days. The mixture on each dish was redissolved in diethyl ether and transferred to a 2 ml vial. After evaporation of the solvent, the residue was dissolved in the HPLC mobile phase (100 μl) and 10% of the solution was analysed by HPLC using a reverse phase column (octadecylsilane) (4.6 mm×250 mm, 3 μm) and a refractive index detector.
Autoxidation of arachidonic acid was conducted in the presence of compound 19 and lauric acid. Stock solutions of arachidonic acid, compound 19 and lauric acid in dichloromethane with equal concentrations were added to a 25 ml round-bottomed flask, and the solvent was evaporated to leave a thin film on the internal surface of the flask. The flask was then filled with oxygen and kept in the dark. The percentages of arachidonic acid and compound 19 remaining after 7 days were measured by HPLC. The same assay was carried out simultaneously with several flasks but the results were not reproducible. The variation was attributed to differences in oxygen concentration and the surface area of the thin films formed in the flasks. Therefore, in order to establish a reproducible assay for the analysis of the autoxidation of arachidonic acid, Petri-dishes with uniform size (80 mm in diameter) were used instead of flasks for thin film formation and the oxidation was carried out by placing the Petri-dishes in a dessicator filled with oxygen. To assess this method, thin firms of arachidonic acid with lauric acid as a standard were prepared on six Petri-dishes using identical treatment, and then subjected to oxidation in the same dessicator filled with oxygen. After 24 h, the percentage of arachidonic acid recovered following autoxidation in each Petri-dish was determined by HPLC. […] The advantage of using a Petri-dish over a flask is that the thin films on each Petri-dish are spread over the same area, and each Petri-dish is exposed to oxygen to the same extent.
Using the Petri-dish assay method, the effects of the thia PUFAs and sulfides 106 and 108-111, along with compounds 18, 19 and 3-[(Z,Z,Z)-(octadeca-9,12,15-trienylthio)] propionic acid 112 which were available in the laboratory, on the autoxidation of arachidonic acid, were examined. In addition, the stability of these compounds in the presence of arachidonic acid was also investigated. Arachidonic acid and lauric acid as a standard were mixed with each sulfur compound at different ratios and the mixtures were subjected to thin film autoxidation. The mixtures were analysed by HPLC after 1,2,3,5 and 7 days.

Data set [2] is described as follows: Reaction with tert-butyl hydroperoxide to the sulfoxide. The following applies: CH2Cl2, RT, after 9 h. It is filed as physicochemical. The source says:
To further investigate the possible involvement of hydroperoxide-induced sulfoxide formation in the antioxidant behaviour of the γ-thia and β-thia fatty acids 18, 19, 106, 108, 109 and 112, compounds 108 and 109 (in a ratio of 1:1 in CH2Cl2) were allowed to react with tert-butyl hydroperoxide. [drawing 37]
The reaction was monitored by TLC and ^1H NMR analysis. […] The ^1H NMR spectrum of compound 114 contains two multiplets at δ2.88-3.07 and two doublets at δ3.63-3.86 corresponding to the methylene protons on the carbons adjacent to sulfur.

A short description of data set [3]: Thin film autoxidation of arachidonic acid with compounds 16-19 (HPLC). The source says: Subsequently, the autoxidation of compounds 16-19 and their effects on the autoxidation of arachidonic acid were investigated. In these experiments, a thin film assay method was employed. For each reaction, arachidonic acid was mixed with one of the synthetic compounds 16, 17, 18 or 19 at 1:1 ratio with or without the radical initiator, azobisisobutyronitrile (AIBN). A reverse phase HPLC method was used to simultaneously measure the relative amounts of arachidonic acid and the synthetic compounds 16, 17, 18 or 19 recovered following 60 or 70 hours or 7 days of thin film autoxidation.

Data set [4] can be described thus: Stability of thia fatty acids and sulfides as thin film under oxygen (1H NMR). It counts as physicochemical. The following applies: darkness, up to six weeks. The procedure: Compounds 110 (4.3 mg) and 106 (6 mg) were each dissolved in 5 ml of dichloromethane and added into 250 ml one-neck flasks. Compound 18 (20 mg) and compounds 19, 108, 109 and 111-112 (14-20 mg) were each dissolved in 10 ml of dichloromethane and added into 500 ml flasks. The solvent dichloromethane was then evaporated with continuous rotation of the flasks, allowing the compounds to form thin films. The flasks were flushed with oxygen, sealed and kept in darkness. The compounds in the flasks were redissolved in chloroform-d and analysed by ^1H NMR every two weeks for up to six weeks.
To examine possible reasons for this lack of antioxidative activity, the chemical stability of compounds 18 and 109 in the absence of arachidonic acid was investigated. For comparison, the stability of compounds 19, 106, 108 and 110-112 was also examined. Each compound was studied as a thin film under oxygen as described above. Samples were removed and analysed by ^1H NMR spectroscopy regularly for up to six weeks. […] This is consistent with compound 109 decomposing in the presence of arachidonic acid, but not alone.

[5] abbreviates: ratio arachidonic acid:compound 1:1, 1 day.
Where [6] appears, read: ratio arachidonic acid:compound 1:1, 2 days.
The mark [7] stands for this setting: ratio arachidonic acid:compound 1:1, 3 days.
The mark [8] stands for this setting: ratio arachidonic acid:compound 1:1, 5 days.
Setting [9] is: ratio arachidonic acid:compound 1:1, 7 days.

As to `CCCCCCCCCCCCCCSCCC(=O)O` [Compound 108], the “Antioxidant effect on autoxidation of arachidonic acid (in words)” value (shortened to “Antioxidant effect on autoxidation”) in data set [1] was “effective antioxidants”. Further, the “Arachidonic acid (%) recovered following autoxidation in the presence of the compound” value amounted to 98% in data set [1] (setting [5]), 93% in data set [1] (setting [6]), 79% in data set [1] (setting [7]) and 30% in data set [1] (setting [8]). The “Compound (%) recovered following autoxidation with arachidonic acid” value was determined as 99% in data set [1] (setting [5]); 91% in data set [1] (setting [6]); 86% in data set [1] (setting [7]); 44% in data set [1] (setting [8]); 37% in data set [1] (setting [9]). For the same molecule, in data set [2], the “Conversion to the sulfoxide by tert-butyl hydroperoxide” value is listed as “completely converted”.
For `CCCCCCCCCCCCCCSCC(=O)O` [Compound 109, 2-Tetradecylthioacetic acid], the “Antioxidant effect on autoxidation” value in data set [1] is “not significantly inhibited”. The entries for the “Arachidonic acid (%) recovered following autoxidation in the presence of the compound” value in data set [1] (setting [5]) and in data set [1] (setting [6]) were 53% and 10%, respectively. For the same molecule, the “Compound (%) recovered following autoxidation with arachidonic acid” value in data set [1] (setting [5]) stood at 50%; in data set [1] (setting [6]), 16%; in data set [1] (setting [7]) it was 17%; in data set [1] (setting [8]) it was 17%; in data set [1] (setting [9]) it was 16%. Also, in data set [2], the “Conversion to the sulfoxide by tert-butyl hydroperoxide” value came to 55%.
With `CCCCC/C=C\C/C=C\C/C=C\C/C=C\CCCCSCC(=O)O` [Compound 18, (all-Z)-(eicosa-5,8,11,14-tetraenylthio) acetic acid], the “Percentage of arachidonic acid recovered in the presence of the compound” value in data set [3] (ratio 1:1, 10% AIBN 60 h) is listed as 87%; in data set [3] (ratio 1:1, no additive 70 h) it was 98%; in data set [3] (ratio 1:1, no additive 7 day) it was 68%. The “Percentage of compound recovered (with arachidonic acid)” value came to 57% in data set [3] (ratio 1:1, 10% AIBN 60 h); 99% in data set [3] (ratio 1:1, no additive 70 h); 28% in data set [3] (ratio 1:1, no additive 7 day). Further, the “Autoxidation of arachidonic acid in the presence of the compound (in words)” value in data set [3] (ratio 1:1, with or without AIBN) is reported as “substantial degree of autoxidation”. Further, in data set [1], the “Antioxidant effect on autoxidation” value is “not significantly inhibited”. Besides, the “Arachidonic acid (%) recovered following autoxidation in the presence of the compound” value was found to be 68% in data set [1] (setting [5]); 29% in data set [1] (setting [6]); 10% in data set [1] (setting [7]); 7% in data set [1] (setting [8]); 5% in data set [1] (setting [9]). The “Compound (%) recovered following autoxidation with arachidonic acid” value worked out at 26% in data set [1] (setting [5]) and 7% in data set [1] (setting [6]). In addition, the “Chemical stability in the absence of arachidonic acid” value in data set [4] is “decomposed after 7 days”.
